# Assay results taken from publication PMC10788528 (The Journal of Biological Chemistry, 2023).
# Several values for one entry are separate records, joined by “and”; a condition that tells them apart may be missing. Identical values can stand only once. Entries after “also recorded” stand apart in the source; their conditions may differ. Like-named read-outs stand apart in the source and are kept apart here.
# Columns and labels:
# [1] = tested on: juvenile worms; details: ref 7 (PZQ); 12 ((S)-MCLZ); cited from earlier work
# [2] = tested on: S. mansoni and S. haematobium infections; details: cited from earlier work
# [3] = target: T1, Sm.TRPMMCLZ (Schistosoma mansoni, UniProt A0A5K4FCC0); assay: Ca2+ reporter assay; type: cell-based; details: for Activator screen at Sm.TRPMMCLZ: 10 μM; for EC50: Activation of Sm.TRPMMCLZ, EC50, HEK293 cells, cytoplasmic Ca2+ (Fluo-4); for Antagonism of (S)-MCLZ (1 μM) action at Sm.TRPMMCLZ: 100 μM, preincubation 5 min
# T1 sequence (A0A5K4FCC0 1-1380): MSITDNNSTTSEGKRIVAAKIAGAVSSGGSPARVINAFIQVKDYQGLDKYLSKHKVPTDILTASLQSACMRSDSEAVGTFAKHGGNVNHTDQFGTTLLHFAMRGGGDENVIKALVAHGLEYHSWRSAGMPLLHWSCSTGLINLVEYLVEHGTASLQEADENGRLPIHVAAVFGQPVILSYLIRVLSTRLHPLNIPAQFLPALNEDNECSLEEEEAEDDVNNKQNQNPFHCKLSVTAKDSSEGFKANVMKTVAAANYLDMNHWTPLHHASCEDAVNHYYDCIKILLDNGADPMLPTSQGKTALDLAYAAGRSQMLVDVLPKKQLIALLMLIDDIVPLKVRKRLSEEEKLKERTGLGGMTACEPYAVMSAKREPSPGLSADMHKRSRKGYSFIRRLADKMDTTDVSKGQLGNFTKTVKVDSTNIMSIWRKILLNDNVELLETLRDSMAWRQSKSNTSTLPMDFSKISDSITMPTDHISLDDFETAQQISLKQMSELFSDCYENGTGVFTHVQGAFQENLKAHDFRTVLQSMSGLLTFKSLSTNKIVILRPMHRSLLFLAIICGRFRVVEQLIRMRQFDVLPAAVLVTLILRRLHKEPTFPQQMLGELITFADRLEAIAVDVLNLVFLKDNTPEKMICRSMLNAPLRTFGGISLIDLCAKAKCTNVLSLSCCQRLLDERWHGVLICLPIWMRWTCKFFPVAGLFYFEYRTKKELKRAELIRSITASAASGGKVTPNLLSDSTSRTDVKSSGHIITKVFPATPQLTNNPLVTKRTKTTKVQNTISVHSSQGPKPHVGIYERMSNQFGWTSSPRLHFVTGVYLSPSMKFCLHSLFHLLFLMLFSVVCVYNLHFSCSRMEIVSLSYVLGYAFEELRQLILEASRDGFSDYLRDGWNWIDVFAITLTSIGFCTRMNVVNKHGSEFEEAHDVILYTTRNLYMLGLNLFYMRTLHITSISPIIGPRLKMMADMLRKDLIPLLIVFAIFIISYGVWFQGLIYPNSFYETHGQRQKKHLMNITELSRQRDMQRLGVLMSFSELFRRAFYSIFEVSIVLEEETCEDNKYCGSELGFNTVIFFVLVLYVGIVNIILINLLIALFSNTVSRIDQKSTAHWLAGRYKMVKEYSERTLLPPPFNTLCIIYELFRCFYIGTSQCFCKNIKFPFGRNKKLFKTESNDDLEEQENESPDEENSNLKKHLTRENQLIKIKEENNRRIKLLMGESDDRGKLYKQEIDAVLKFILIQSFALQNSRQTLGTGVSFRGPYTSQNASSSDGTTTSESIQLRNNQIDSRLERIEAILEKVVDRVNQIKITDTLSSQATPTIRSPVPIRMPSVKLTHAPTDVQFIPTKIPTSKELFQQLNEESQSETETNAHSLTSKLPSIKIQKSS
# [4] = tested on: adult S. mansoni worms; assay: Adult schistosome movement; type: cell-based, Schistosoma mansoni; details: for Effect on worm movement (paralysis): 1 μM, adult S. mansoni worms, images 1 min after addition; for IC50: Schistosoma mansoni, read-out: Inhibition of motility, IC50
# [5] = tested on: Sm.TRPM[H831A]MCLZ; assay: Ca2+ reporter assay, Sm.TRPM[H831A]MCLZ mutant; type: cell-based, Schistosoma mansoni; details: binding pocket mutant
# [6] = tested on: Sm.TRPMMCLZ [Y1038A]; type: cell-based, Schistosoma mansoni; details: 10 μM, cell-attached
# [7] = tested on: adult S. mansoni worms; details: cited from earlier work
# [8] = target: Sj.TRPMMCLZ (Schistosoma japonicum, UniProt A0A4Z2D8Z3); assay: Ca2+ reporter assay, Sj.TRPMMCLZ; type: cell-based
# Sj.TRPMMCLZ, sequence (A0A4Z2D8Z3 1-1377): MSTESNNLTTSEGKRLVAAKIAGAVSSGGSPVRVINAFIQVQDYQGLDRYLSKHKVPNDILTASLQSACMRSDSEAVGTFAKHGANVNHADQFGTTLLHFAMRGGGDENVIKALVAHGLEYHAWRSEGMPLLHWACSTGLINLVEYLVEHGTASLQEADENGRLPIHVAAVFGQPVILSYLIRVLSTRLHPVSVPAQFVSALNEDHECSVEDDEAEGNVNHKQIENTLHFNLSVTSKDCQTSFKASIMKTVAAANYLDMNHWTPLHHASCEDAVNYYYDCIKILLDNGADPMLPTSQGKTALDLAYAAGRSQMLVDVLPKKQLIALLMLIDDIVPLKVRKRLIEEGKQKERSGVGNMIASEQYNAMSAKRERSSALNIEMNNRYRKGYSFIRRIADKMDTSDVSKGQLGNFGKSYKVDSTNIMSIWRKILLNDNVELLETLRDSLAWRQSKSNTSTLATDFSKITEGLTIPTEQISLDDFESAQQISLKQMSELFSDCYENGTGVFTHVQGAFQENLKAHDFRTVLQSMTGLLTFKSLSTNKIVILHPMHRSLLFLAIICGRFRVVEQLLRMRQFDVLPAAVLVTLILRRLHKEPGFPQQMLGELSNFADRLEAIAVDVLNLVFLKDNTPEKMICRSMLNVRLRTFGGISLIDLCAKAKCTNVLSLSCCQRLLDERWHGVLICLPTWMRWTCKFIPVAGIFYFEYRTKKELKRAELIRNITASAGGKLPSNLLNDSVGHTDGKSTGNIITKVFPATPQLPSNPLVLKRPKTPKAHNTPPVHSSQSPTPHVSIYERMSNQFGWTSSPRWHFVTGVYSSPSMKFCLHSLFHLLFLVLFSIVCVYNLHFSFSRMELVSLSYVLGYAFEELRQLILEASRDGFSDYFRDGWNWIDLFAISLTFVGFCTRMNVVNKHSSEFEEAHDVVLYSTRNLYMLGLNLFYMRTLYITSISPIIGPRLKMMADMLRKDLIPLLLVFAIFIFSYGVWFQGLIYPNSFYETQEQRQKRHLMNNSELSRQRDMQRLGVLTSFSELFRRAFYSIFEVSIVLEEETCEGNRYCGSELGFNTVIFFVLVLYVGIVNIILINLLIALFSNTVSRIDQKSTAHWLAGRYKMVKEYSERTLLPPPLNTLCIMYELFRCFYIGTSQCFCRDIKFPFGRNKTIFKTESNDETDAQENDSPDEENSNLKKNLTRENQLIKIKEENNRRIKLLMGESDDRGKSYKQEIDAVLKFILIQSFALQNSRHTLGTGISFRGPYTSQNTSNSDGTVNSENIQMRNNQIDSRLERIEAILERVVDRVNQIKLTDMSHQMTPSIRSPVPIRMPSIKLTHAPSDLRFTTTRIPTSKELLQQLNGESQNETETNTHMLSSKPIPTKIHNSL
# [9] = target: Sb.TRPMMCLZ (Schistosoma bovis, UniProt A0A430Q971); assay: Ca2+ reporter assay, Sb.TRPMMCLZ; type: cell-based
# Sb.TRPMMCLZ, sequence (A0A430Q971 1-1241): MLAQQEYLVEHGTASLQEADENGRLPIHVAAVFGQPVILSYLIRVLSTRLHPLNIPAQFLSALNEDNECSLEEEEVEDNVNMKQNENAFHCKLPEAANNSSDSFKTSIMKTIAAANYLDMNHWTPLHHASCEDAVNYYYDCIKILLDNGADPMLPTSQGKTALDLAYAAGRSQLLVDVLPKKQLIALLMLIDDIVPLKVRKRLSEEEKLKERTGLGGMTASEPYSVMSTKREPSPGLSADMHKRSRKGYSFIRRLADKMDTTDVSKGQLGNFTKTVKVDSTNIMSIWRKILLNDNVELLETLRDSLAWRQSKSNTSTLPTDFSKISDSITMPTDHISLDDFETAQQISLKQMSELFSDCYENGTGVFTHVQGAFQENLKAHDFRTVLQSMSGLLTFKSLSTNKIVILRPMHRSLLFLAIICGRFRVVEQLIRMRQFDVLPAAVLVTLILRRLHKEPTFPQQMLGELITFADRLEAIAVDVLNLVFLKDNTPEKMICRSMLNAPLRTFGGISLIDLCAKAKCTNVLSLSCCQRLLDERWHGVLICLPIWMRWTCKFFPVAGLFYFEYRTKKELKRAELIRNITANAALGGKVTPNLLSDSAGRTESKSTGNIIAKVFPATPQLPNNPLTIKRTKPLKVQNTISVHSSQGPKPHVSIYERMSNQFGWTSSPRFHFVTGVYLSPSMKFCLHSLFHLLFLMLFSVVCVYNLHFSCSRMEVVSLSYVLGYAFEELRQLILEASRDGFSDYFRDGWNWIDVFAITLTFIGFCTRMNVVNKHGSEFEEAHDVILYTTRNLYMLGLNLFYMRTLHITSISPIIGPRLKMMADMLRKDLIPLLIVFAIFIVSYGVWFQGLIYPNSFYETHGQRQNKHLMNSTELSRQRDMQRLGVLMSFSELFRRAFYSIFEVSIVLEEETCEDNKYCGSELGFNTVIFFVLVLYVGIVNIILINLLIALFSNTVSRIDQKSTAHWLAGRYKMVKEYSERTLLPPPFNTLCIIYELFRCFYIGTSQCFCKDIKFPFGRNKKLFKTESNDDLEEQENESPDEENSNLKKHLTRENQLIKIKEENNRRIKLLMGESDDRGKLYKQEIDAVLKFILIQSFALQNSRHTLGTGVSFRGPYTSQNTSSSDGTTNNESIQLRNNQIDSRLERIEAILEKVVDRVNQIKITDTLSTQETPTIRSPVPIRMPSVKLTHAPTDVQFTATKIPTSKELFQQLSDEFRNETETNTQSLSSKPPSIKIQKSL
# [10] = target: T1, Sm.TRPMMCLZ; assay: Confocal Ca2+ imaging, HEK293 cells expressing Sm.TRPMMCLZ; type: cell-based; details: 10 μM
# [11] = tested on: Sm.TRPM[R943A]MCLZ; assay: Ca2+ reporter assay, Sm.TRPM[R943A]MCLZ mutant; type: cell-based, Schistosoma mansoni; details: binding pocket mutant
# [12] = tested on: Sh.TRPM[H946Y]; assay: Ca2+ reporter assay, Sh.TRPM[H946Y] mutant; type: cell-based, Schistosoma haematobium; details: S4 point mutant
# [13] = tested on: Sm.TRPM[Y1117A]MCLZ; assay: Ca2+ reporter assay, Sm.TRPM[Y1117A]MCLZ mutant; type: cell-based, Schistosoma mansoni; details: binding pocket mutant
# [14] = tested on: St.TRPM[Y940H]MCLZ
# [15] = tested on: Sb.TRPM[H946Y]; assay: Ca2+ reporter assay, Sb.TRPM[H946Y] mutant; type: cell-based, Schistosoma bovis; details: S4 point mutant
# [16] = target: Sh.TRPMMCLZ (Schistosoma haematobium, UniProt A0A922LUV1); assay: Ca2+ reporter assay, Sh.TRPMMCLZ; type: cell-based
# Sh.TRPMMCLZ, sequence (A0A922LUV1 1-1380): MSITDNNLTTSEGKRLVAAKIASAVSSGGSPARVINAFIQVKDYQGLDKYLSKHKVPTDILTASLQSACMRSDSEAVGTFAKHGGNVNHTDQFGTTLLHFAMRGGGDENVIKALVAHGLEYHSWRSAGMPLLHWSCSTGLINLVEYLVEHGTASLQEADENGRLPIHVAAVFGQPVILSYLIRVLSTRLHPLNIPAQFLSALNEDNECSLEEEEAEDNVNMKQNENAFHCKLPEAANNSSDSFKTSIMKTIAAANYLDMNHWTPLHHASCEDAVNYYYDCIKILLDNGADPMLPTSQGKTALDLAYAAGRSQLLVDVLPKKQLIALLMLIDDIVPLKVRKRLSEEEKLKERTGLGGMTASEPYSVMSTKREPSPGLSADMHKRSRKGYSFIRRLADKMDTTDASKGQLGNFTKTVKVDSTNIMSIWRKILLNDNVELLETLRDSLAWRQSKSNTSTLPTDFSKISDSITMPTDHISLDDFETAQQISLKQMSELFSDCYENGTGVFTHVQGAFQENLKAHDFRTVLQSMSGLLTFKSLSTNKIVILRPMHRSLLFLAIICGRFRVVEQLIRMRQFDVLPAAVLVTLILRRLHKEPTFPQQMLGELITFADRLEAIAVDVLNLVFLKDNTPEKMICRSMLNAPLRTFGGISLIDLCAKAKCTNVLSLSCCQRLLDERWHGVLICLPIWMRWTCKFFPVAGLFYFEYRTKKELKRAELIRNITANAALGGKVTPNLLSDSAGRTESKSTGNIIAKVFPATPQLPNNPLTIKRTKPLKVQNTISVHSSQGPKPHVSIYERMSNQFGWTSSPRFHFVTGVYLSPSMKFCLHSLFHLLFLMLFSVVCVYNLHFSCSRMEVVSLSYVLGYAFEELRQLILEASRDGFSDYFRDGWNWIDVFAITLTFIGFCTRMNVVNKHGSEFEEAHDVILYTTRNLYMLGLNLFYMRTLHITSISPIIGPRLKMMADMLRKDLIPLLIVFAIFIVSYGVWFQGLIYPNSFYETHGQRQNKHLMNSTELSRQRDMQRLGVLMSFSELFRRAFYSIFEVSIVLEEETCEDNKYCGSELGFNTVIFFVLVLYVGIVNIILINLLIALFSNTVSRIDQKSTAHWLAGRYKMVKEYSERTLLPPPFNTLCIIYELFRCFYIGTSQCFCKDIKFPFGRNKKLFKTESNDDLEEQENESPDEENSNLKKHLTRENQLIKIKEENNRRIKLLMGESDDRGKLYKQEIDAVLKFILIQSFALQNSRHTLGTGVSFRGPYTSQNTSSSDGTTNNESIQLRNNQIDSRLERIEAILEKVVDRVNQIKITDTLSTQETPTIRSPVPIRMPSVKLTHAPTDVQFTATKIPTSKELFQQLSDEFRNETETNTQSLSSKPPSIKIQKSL
# [17] = tested on: Sm.TRPM[H946A]MCLZ; assay: Ca2+ reporter assay, Sm.TRPM[H946A]MCLZ mutant; type: cell-based, Schistosoma mansoni; details: alanine mutant
# [18] = tested on: Sm.TRPM[H827A]MCLZ; assay: Ca2+ reporter assay, Sm.TRPM[H827A]MCLZ mutant; type: cell-based, Schistosoma mansoni; details: binding pocket mutant
# [19] = tested on: Sm.TRPM[E868A]MCLZ; assay: Ca2+ reporter assay, Sm.TRPM[E868A]MCLZ mutant; type: cell-based, Schistosoma mansoni; details: S2 residue mutant
# [20] = tested on: Sm.TRPM[Y864A]MCLZ; assay: Ca2+ reporter assay, Sm.TRPM[Y864A]MCLZ mutant; type: cell-based, Schistosoma mansoni; details: S2 residue mutant
# [21] = tested on: S. japonicum worms; details: cited from earlier work
# [22] = target: T1, Sm.TRPMMCLZ; assay: Cell-attached current recordings, HEK293 cells expressing Sm.TRPMMCLZ and GFP; type: cell-based; details: 10 μM
# [23] = tested on: HEK293 cells expressing GFP alone; assay: Cell-attached current recordings, HEK293 cells expressing GFP alone; type: cell-based; details: 10 μM
# [24] = tested on: St.TRPMMCLZ; assay: Ca2+ reporter assay, St.TRPMMCLZ; type: cell-based, Schistosoma turkestanicum; details: read-out: Activation of St.TRPMMCLZ, EC50
# [25] = target: Sm.TRPMPZQ (Schistosoma mansoni, UniProt A0A5K4F0X5); assay: Ca2+ reporter assay; type: cell-based; details: for Activation of Sm.TRPMPZQ by Cav channel ligands: Fig. S2 concentration-response
# [26] = tested on: S. mansoni male worms; assay: Acute contraction of S. mansoni male worms by benzodiazepines; type: cell-based, Schistosoma mansoni; details: 3 μM, 20 min
# [27] = preliminary clinical evaluation
compound,measurement,setting,value
"O=C(C1CCCCC1)N1CC(=O)N2CCc3ccccc3C2C1 (racemic) [(±)-PZQ, praziquantel]",Efficacy against juvenile / immature worms,[1],poorly effective against immature worms
same,Cure rates,[2]; at clinical dosing,60–90%
same,Agonist activity at Sm.TRPMMCLZ (concentration-response),"[3]; HEK293 cells, cytoplasmic Ca2+",did not activate
same,Antagonism of (S)-MCLZ activation of Sm.TRPMMCLZ,[3]; competition versus (S)-MCLZ (1 μM),failed to inhibit
NCCc1c[nH]c2ccc(O)cc12 [5-hydroxytryptamine],Activator screen at Sm.TRPMMCLZ,[3],inactive
"O=C(C1CCCCC1)N1CC(=O)N2CCc3ccccc3[C@@H]2C1 [(R)-PZQ, praziquantel]",Effect on worm movement (paralysis),[4],"rapid, spastic paralysis"
same,IC50,[4],250 ± 70 nM
"C[C@@H]1N=C(c2ccccc2Cl)c2cc([N+](=O)[O-])ccc2NC1=O [(S)-MCLZ, (S)-meclonazepam]",Activation of Sm.TRPM[H831A]MCLZ,[5],little activation
same,Current response in pore mutant Sm.TRPMMCLZ [Y1038A],[6],strongly attenuated
same,Damage to the worm tegument,[7],pronounced damage to the worm tegument
same,Time to spastic paralysis of adult S. mansoni worms,[7],< 1 min
same,IC50,"[7]; read-out: Sensitivity of schistosome worms, IC50",2000 to 3000 nM
same,EC50,[8],> 50000 nM
same,EC50,[9],1300 ± 300 nM
same,Ca2+ signals by confocal imaging in cells expressing Sm.TRPMMCLZ,[10],sustained Ca^2+ transients
same,Efficacy against juvenile / immature worms,[1],displays efficacy against juvenile worms
same,Activation of Sm.TRPM[R943A]MCLZ,[11],little activation
same,Sensitivity of Sh.TRPM[H946Y] relative to wildtype,[12],lower sensitivity of response
same,Activation of Sm.TRPM[Y1117A]MCLZ,[13],little activation
same,EC50,[14],800 ± 200 nM
same,Clinical outcome of infection,[2]; [27],cured S. mansoni and S. haematobium infections
same,Side effects in subjects,[2]; [27],"dose-dependent drowsiness, dizziness, slurred speech, ataxia, reduced mental alertness, muscle weakness, hypotension, and bradycardia"
same,Sensitivity of Sb.TRPM[H946Y] relative to wildtype,[15],lower sensitivity of response
same,EC50,[16],1400 ± 400 nM
same,Potency at Sm.TRPM[H946A]MCLZ relative to wildtype,[17],slightly increased potency
same,Activation of Sm.TRPM[H827A]MCLZ,[18],resembled the wildtype channel
same,Activation of Sm.TRPM[E868A]MCLZ (effect of mutation),[19],much less of an effect
same,Activation of Sm.TRPM[Y864A]MCLZ (effect of mutation),[20],much less of an effect
same,Activity against S. japonicum worms,[21],poorly active
same,Effect on worm movement (paralysis),[4],"rapid, spastic paralysis"
same,IC50,[4],1540 ± 90 nM
same,Cells with evoked inward current,[22]; holding potential of 60 mV as printed,17/21
same,Reversal potential of current-voltage relationship,"[22]; voltage ramp, I-V linear",~0 mV
same,EC50,[3],1100 nM and ~1000 nM
same,Cells with evoked currents,[23],0/10
same,EC50,[24],> 50000 nM
same,Agonist activity at Sm.TRPMPZQ (concentration-response),"[25]; HEK293 cells, 1 nM to 100 μM",did not activate
same,Antagonism of PZQ activation of Sm.TRPMPZQ,"[25]; competition versus (±)-PZQ (0.6 μM), high concentrations (>30 μM)",partially attenuated
O=C1CN=C(c2ccccc2Cl)c2cc([N+](=O)[O-])ccc2N1 [Clonazepam],Acute contraction / paralysis of S. mansoni male worms,[26],caused acute worm paralysis
same,EC50,[3],2100 ± 200 nM
O=C(O)CN(CCOCCOCCN(CC(=O)O)CC(=O)O)CC(=O)O [EGTA],Effect of chelation of extracellular Ca2+ on the (S)-MCLZ-evoked Ca2+ signal,"[3]; EGTA 1 mM in Ca2+-free HBSS, (S)-MCLZ 100 μM",abolished
COC(=O)c1c(C)[nH]c(C)c1C(=O)c1ccccc1Cc1ccccc1 [FPL-64176],Activator screen at Sm.TRPMMCLZ,[3],activated
same,Activation of Sm.TRPMPZQ by Cav channel ligands,[25],but not Sm.TRPMPZQ
NCCCC(=O)O [GABA],Activator screen at Sm.TRPMMCLZ,[3],inactive
"[Cl-].[Cl-].[Mg+2] [Mg^2+, MgCl2]",Inhibition of Ca2+ permeability through TRPMMCLZ by metal salt,"[3]; (S)-MCLZ 1 μM, weakest in rank order La3+ > Ba2+ > Mg2+",partial inhibition
C=CCN=C=S [allyl isothiocyanate],Activator screen at Sm.TRPMMCLZ,[3],inactive
COc1cc(CNC(=O)CCCC/C=C/C(C)C)ccc1O [capsaicin],Activator screen at Sm.TRPMMCLZ,[3],inactive
C[N+](C)(C)CCOC(N)=O [carbachol],Activator screen at Sm.TRPMMCLZ,[3],inactive
CN1C(=O)CN=C(c2ccccc2)c2cc(Cl)ccc21 [diazepam],Acute contraction / paralysis of S. mansoni male worms,[26],did not evoke worm contraction
NCCc1ccc(O)c(O)c1 [dopamine],Activator screen at Sm.TRPMMCLZ,[3],inactive
CCOC(=O)c1ncn2c1CN(C)C(=O)c1cc(F)ccc1-2 [flumazenil],Antagonism of (S)-MCLZ (1 μM) action at Sm.TRPMMCLZ,[3],weakly antagonized
CN1C(=O)CN=C(c2ccccc2F)c2cc([N+](=O)[O-])ccc21 [flunitrazepam],Acute contraction / paralysis of S. mansoni male worms,[26],did not evoke worm contraction
CCN(CC)CCN1C(=O)CN=C(c2ccccc2F)c2cc(Cl)ccc21 [flurazepam],Acute contraction / paralysis of S. mansoni male worms,[26],did not evoke worm contraction
O=C1NC(c2cccc([N+](=O)[O-])c2)=CCN1c1ccccc1O [icilin],Activator screen at Sm.TRPMMCLZ,[3],inactive
CC1CCC(C(C)C)C(O)C1 (stereo not drawn) [menthol],Activator screen at Sm.TRPMMCLZ,[3],inactive
COc1ccc(CCN(C)CCCC(C#N)(c2cc(OC)c(OC)c(OC)c2)C(C)C)cc1OC (stereo not drawn) [methoxyverapamil],Antagonism of (S)-MCLZ (1 μM) action at Sm.TRPMMCLZ,[3],weakly antagonized
COC(=O)C1=C(C)NC(C)=C(C(=O)OCCN(C)Cc2ccccc2)C1c1cccc([N+](=O)[O-])c1 (stereo not drawn) [nicardipine],Antagonism of (S)-MCLZ (1 μM) action at Sm.TRPMMCLZ,[3],weakly antagonized; also recorded: weakly attenuated
COC(=O)C1=C(C)NC(C)=C(C(=O)OC)C1c1ccccc1[N+](=O)[O-] [nifedipine],Antagonism of (S)-MCLZ (1 μM) action at Sm.TRPMMCLZ,[3],weakly antagonized; also recorded: weakly attenuated
COCCOC(=O)C1=C(C)NC(C)=C(C(=O)OC(C)C)C1c1cccc([N+](=O)[O-])c1 (stereo not drawn) [nimodipine],Activator screen at Sm.TRPMMCLZ,[3],activated
same,Activation of Sm.TRPMPZQ by Cav channel ligands,[25],but not Sm.TRPMPZQ
